One data set is described as follows: Solubility in water. It counts as physicochemical.
The next data set relates to Vibrio comma. The data set can be described thus: Antibacterial spectrum (Table A), 50% inhibition. It counts as cell-based. As to conditions: Vibrio cholerae. An excerpt: (§1) This effect is quite unexpected, since of the hitherto known derivatives of 6-aminopenicillanic acid only those being substituted with an acyl group at the 6-amino group have shown an antibacterial effect. The effect on penicillin-sensitive, gram-positive bacteria is less than that of benzylpenicillin and of α-aminobenzylpenicillin, whereas the effect on gram-negative bacilli, e.g. coli and salmonella species, is on a many times higher level than that of e.g. benzylpenicillin and α-aminobenzylpenicillin. […] IC50 means the concentration required for 50% inhibition.

Another data set deals with Pseudomonas aeruginosa. Briefly: Antibacterial spectrum (Table A), 50% inhibition. It counts as cell-based.
Description: as §1

The test system of another data set is Salmonella paratyphi A. Briefly: Antibacterial spectrum (Table A), 50% inhibition. It counts as cell-based. As to conditions: Salmonella enterica.
Description: as §1

In data set [1] the test system is Erysipelothrix insidiosa FU. The data set can be described thus: Antibacterial spectrum (Table A), 50% inhibition. It counts as cell-based. The note with it: Erysipelothrix rhusiopathiae.
Description: as §1

In data set [2] the test system is Diplococcus pneumoniae EA. Briefly: Antibacterial spectrum (Table A), 50% inhibition. As to conditions: Streptococcus pneumoniae. It counts as cell-based.
Description: as §1

Data set [3] deals with Salmonella abortivoequina. Briefly: Antibacterial spectrum (Table A), 50% inhibition. It counts as cell-based.
Description: as §1

For the next data set, the system named is Streptococcus pyogenes. The data set can be described thus: Antibacterial spectrum (Table A), 50% inhibition. It counts as cell-based.
Description: as §1

Data set [4] deals with Escherichia coli, average of 36 strains. Briefly: Antibacterial spectrum (Table A), 50% inhibition. It counts as cell-based.
Description: as §1

The test system of a further data set is Bacillus subtilis KA2. Briefly: Antibacterial spectrum (Table A), 50% inhibition. It counts as cell-based.
Description: as §1

The test system of another data set is Salmonella hirschfeldii. The data set can be described thus: Antibacterial spectrum (Table A), 50% inhibition. It counts as cell-based.
Description: as §1

In a further data set the test system is Shigella flexneri. Briefly: Antibacterial spectrum (Table A), 50% inhibition. It counts as cell-based.
Description: as §1

The subject of data set [5] is Corynebacterium xerosis FF. Briefly: Antibacterial spectrum (Table A), 50% inhibition. It counts as cell-based.
Description: as §1

Another data set relates to Shigella dysenteriae. Briefly: Antibacterial spectrum (Table A), 50% inhibition. It counts as cell-based.
Description: as §1

Data set [6] concerns Klebsiella pneumoniae, average of 12 strains. The data set can be described thus: Antibacterial spectrum (Table A), 50% inhibition. It counts as cell-based.
Description: as §1

For data set [7], the system named is Staph. aureus, penicillin sensitive. Briefly: Antibacterial spectrum (Table A), 50% inhibition. It counts as cell-based. The note with it: Staphylococcus aureus.
Description: as §1

The test system of a further data set is Alcaligenes faecalis. Briefly: Antibacterial spectrum (Table A), 50% inhibition. It counts as cell-based.
Description: as §1

Data set [8] deals with Streptococcus faecalis E13. Briefly: Antibacterial spectrum (Table A), 50% inhibition. It counts as cell-based. As to conditions: Enterococcus faecalis.
Description: as §1

Another data set deals with Salmonella enteritidis. The data set can be described thus: Antibacterial spectrum (Table A), 50% inhibition. The note with it: Salmonella enterica. It counts as cell-based.
Description: as §1

The subject of data set [9] is Staph. aureus, penicillinase producing. Briefly: Antibacterial spectrum (Table A), 50% inhibition. It counts as cell-based. As to conditions: Staphylococcus aureus.
Description: as §1

Data set [10] has as its system Listeria Monocytogenes FT. The data set can be described thus: Antibacterial spectrum (Table A), 50% inhibition. It counts as cell-based.
Description: as §1

Data set [11] relates to Salmonella schottmuelleri. The data set can be described thus: Antibacterial spectrum (Table A), 50% inhibition. It counts as cell-based.
Description: as §1

The test system of a further data set is Salmonella typhimurium. The data set can be described thus: Antibacterial spectrum (Table A), 50% inhibition. It counts as cell-based. The note with it: Salmonella enterica.
Description: as §1

The next data set concerns Salmonella chlerasuis. Briefly: Antibacterial spectrum (Table A), 50% inhibition. It counts as cell-based.
Description: as §1

The next data set deals with Bacillus megatherium KD. Briefly: Antibacterial spectrum (Table A), 50% inhibition. It counts as cell-based.
Description: as §1

Another data set deals with Salmonella typhosa. Briefly: Antibacterial spectrum (Table A), 50% inhibition. It counts as cell-based. The note with it: Salmonella enterica.
Description: as §1

Data set [12] deals with Proteus, average of 8 strains. The data set can be described thus: Antibacterial spectrum (Table A), 50% inhibition. It counts as cell-based.
Description: as §1

Data set [13] has as its system Escherichia coli HA2 Leo strain. Briefly: Antibacterial activity (Tables A and B), 50% inhibition. It counts as cell-based. The note with it: HA2LEOSTRAIN, Table A.
Description: as §1
In Table B below the activity of a number of the compounds of the invention against the Escherichia coli HA2 Leo strain of Table A is shown:
The compounds of Table B were obtained by enzymatic hydrolysis of the corresponding esters described in the Examples mentioned by treatment with a 20 per cent mouse serum at 37°C in 90 minutes.

Another data set has as its system Escherichia Coli HA2. Briefly: In vivo experiment: survival of mice infected with Escherichia Coli HA2 (Table C). As to conditions: 10 mice. Here is the method: The great difference between the spectrum of the hereinbefore mentioned FL 1060 and those of G-penicillin and ampicillin indicates a difference in the mode of action. This is also supported by in vivo experiments, in which mice (weight 27 to 30 g) were infected with 0.5 ml of a 24 hour old NIH bouillon culture of Escherichia Coli HA2 1000 times diluted in gastric mucin (5%) (Orthana). After half an hour and again after 61/2 hours a single dose was given subcutaneously in 0.5 ml. of a 0.9 per cent sodium chloride solution. After 24 hours the numbers of surviving mice were registered.
All surviving mice were still alive after 4 days, when observation of them was terminated.

Where [14] appears, read: Diplococcus pneumoniae EA, read-out: IC50.
[15] abbreviates: Salmonella abortivoequina, read-out: IC50.
Where [16] appears, read: average of 12 strains, read-out: IC50.
[17] abbreviates: Streptococcus faecalis E13, read-out: IC50.
The mark [18] stands for this setting: Salmonella enteritidis, read-out: IC50.
The mark [19] stands for this setting: Listeria Monocytogenes FT, read-out: IC50.
The mark [20] stands for this setting: Salmonella typhimurium, read-out: IC50.
[21] abbreviates: Salmonella chlerasuis, read-out: IC50.
Setting [22] is: Proteus, average of 8 strains, read-out: IC50.

For four molecules, solubility, IC50 and per cent surviving results are on record in patent US3957764A, “6-Aminopenicillanic acid derivatives” (priority 1969, dated 1976).

Values after ≈ are worked out from the molar mass of the structure shown. Read-outs that look alike come from different tables or passages of the source.

As to `CC1(C)S[C@@H]2[C@H](N=CN3CCCCCC3)C(=O)N2[C@H]1C(=O)O` [Example 6, 6-[(Hexahydro-1H-azepin-1-yl)-methyleneamino]-penicillanic acid], the solubility result in “Solubility in water” is recorded as “soluble in water”.

The term IC50 denotes the concentration that inhibits the measured activity by half. Regarding `CC1(C)S[C@@H]2[C@H](NC(=O)Cc3ccccc3)C(=O)N2[C@H]1C(=O)O` [G-Pen., benzylpenicillin], the IC50 in the data set on Vibrio comma is 0.79 µg/mL (≈ 2.36 µM); with Pseudomonas aeruginosa it was greater than 100 µg/mL; in the data set on Salmonella paratyphi A, 3.2 µg/mL (≈ 9.57 µM); in data set [1] it was 0.025 µg/mL (≈ 0.0748 µM); in data set [2], 0.01 µg/mL (≈ 0.0299 µM); in [3] (Salmonella), 2.5 µg/mL (≈ 7.48 µM). Besides, the IC50 in the data set on Streptococcus pyogenes is 0.008 µg/mL (≈ 0.0239 µM); in data set [4], 32 µg/mL (≈ 95.7 µM); with Bacillus subtilis KA2, 0.01 µg/mL (≈ 0.0299 µM); in the data set on Salmonella hirschfeldii, 0.13 µg/mL (≈ 0.389 µM); with Shigella flexneri it was 10 µg/mL (≈ 29.9 µM); in data set [5] (Corynebacterium xerosis), 0.013 µg/mL (≈ 0.0389 µM). Moreover, the IC50 in the data set with Shigella dysenteriae came out at 5 µg/mL (≈ 15 µM); in data set [6] it was 29 µg/mL (≈ 86.7 µM); in [7] it was 0.016 µg/mL (≈ 0.0478 µM); in the data set on Alcaligenes faecalis, 1.6 µg/mL (≈ 4.78 µM); in [8] (E13), 3.2 µg/mL (≈ 9.57 µM); in the data set with Salmonella enteritidis (ENTERITIDIS), 2.5 µg/mL (≈ 7.48 µM). Also, the IC50 in data set [9] came out at 100 µg/mL (≈ 299 µM); in [10] (Listeria monocytogenes), 0.1 µg/mL (≈ 0.299 µM); in data set [11], 3.2 µg/mL (≈ 9.57 µM); in the data set with Salmonella typhimurium (TYPHIMURIUM), 2.5 µg/mL (≈ 7.48 µM); in the data set on Salmonella chlerasuis (Salmonella) it was 1.6 µg/mL (≈ 4.78 µM); in the data set with Bacillus megatherium KD (Bacillus) it was 0.016 µg/mL (≈ 0.0478 µM). In addition, the IC50 in the data set with Salmonella typhosa stood at 2 µg/mL (≈ 5.98 µM); in data set [12], 5.4 µg/mL (≈ 16.1 µM); in data set [13], 32 µg/mL (≈ 95.7 µM).

In the case of `CC1(C)S[C@@H]2[C@H](/N=C/N3CCCCCC3)C(=O)N2[C@H]1C(=O)O` [FL 1060, 6-[(hexahydro-1H-azepin-1-yl)-methyleneamino]-penicillanic acid, hydrochloric, dihydrate], the IC50 in the data set with Vibrio comma was 0.4 µg/mL; in the data set on Pseudomonas aeruginosa (read-out: IC50), greater than 100 µg/mL; in the data set with Salmonella paratyphi A, 0.13 µg/mL; in [1], 20 µg/mL; in data set [2] (setting [14]) it was 3.2 µg/mL; in [3] (setting [15]), 0.04 µg/mL. Further, the IC50 in the data set on Streptococcus pyogenes (read-out: IC50) turned out to be 0.5 µg/mL; in data set [4], 0.089 µg/mL; in the data set with Bacillus subtilis KA2 (read-out: IC50), 5 µg/mL; with Salmonella hirschfeldii, 0.016 µg/mL; in the data set with Shigella flexneri, 0.05 µg/mL; in [5] (Corynebacterium xerosis FF, read-out: IC50) it was 1.6 µg/mL. Moreover, the IC50 in the data set on Shigella dysenteriae was 0.16 µg/mL; in data set [6] (setting [16]), 0.65 µg/mL; in [7], 5 µg/mL; in the data set on Alcaligenes faecalis, 0.63 µg/mL; in [8] (setting [17]) it was greater than 100 µg/mL; in the data set with Salmonella enteritidis (setting [18]), 0.16 µg/mL. The IC50 is greater than 100 µg/mL in [9]; 50 µg/mL in data set [10] (setting [19]); 0.063 µg/mL in data set [11]; 0.063 µg/mL with Salmonella typhimurium (setting [20]); 0.16 µg/mL in the data set with Salmonella chlerasuis (setting [21]); 0.5 µg/mL in the data set on Bacillus megatherium KD (Bacillus megatherium KD, read-out: IC50). Further, the IC50 with Salmonella typhosa is 0.079 µg/mL; in data set [12] (setting [22]), 0.23 µg/mL; in data set [13] it was 0.016 µg/mL. Moreover, the per cent surviving is listed as 0 per cent in the data set on Escherichia Coli HA2 (single dose 7.5 μg s.c., given twice, 24 hours); 0 per cent in the data set with Escherichia Coli HA2 (single dose 15 μg s.c., given twice, 24 hours); 50 per cent in the data set on Escherichia Coli HA2 (single dose 30 μg s.c., after half an hour and again after 6 1/2 hours, 24 hours (survivors alive after 4 days)).

`CC1(C)S[C@@H]2[C@H](NC(=O)[C@H](N)c3ccccc3)C(=O)N2[C@H]1C(=O)O` [Ampicillin, α-aminobenzylpenicillin]: the IC50 is 0.4 µg/mL (≈ 1.14 µM) in the data set on Vibrio comma; greater than 100 µg/mL in the data set on Pseudomonas aeruginosa (read-out: IC50); 0.4 µg/mL (≈ 1.14 µM) with Salmonella paratyphi A; 0.04 µg/mL (≈ 0.114 µM) in data set [1]; 0.01 µg/mL (≈ 0.0286 µM) in data set [2] (setting [14]); 0.25 µg/mL (≈ 0.715 µM) in [3] (setting [15]). Further, the IC50 is 0.013 µg/mL (≈ 0.0372 µM) in the data set on Streptococcus pyogenes (read-out: IC50); 2.2 µg/mL (≈ 6.3 µM) in [4]; 0.025 µg/mL (≈ 0.0715 µM) with Bacillus subtilis KA2 (read-out: IC50); 0.079 µg/mL (≈ 0.226 µM) in the data set with Salmonella hirschfeldii; 0.79 µg/mL (≈ 2.26 µM) in the data set with Shigella flexneri; 0.63 µg/mL (≈ 1.8 µM) in the data set on Shigella dysenteriae. Also, the IC50 came to 26 µg/mL (≈ 74.4 µM) in data set [6] (setting [16]); 0.025 µg/mL (≈ 0.0715 µM) in [7]; 0.5 µg/mL (≈ 1.43 µM) with Alcaligenes faecalis; 0.79 µg/mL (≈ 2.26 µM) in [8] (setting [17]); 0.4 µg/mL (≈ 1.14 µM) with Salmonella enteritidis (setting [18]); 130 µg/mL (≈ 372 µM) in data set [9]. Further, the IC50 in data set [10] (setting [19]) was 0.1 µg/mL (≈ 0.286 µM); in data set [11], 0.63 µg/mL (≈ 1.8 µM); with Salmonella typhimurium (setting [20]) it was 0.5 µg/mL (≈ 1.43 µM); in the data set on Salmonella chlerasuis (setting [21]), 0.32 µg/mL (≈ 0.916 µM); in the data set with Salmonella typhosa, 0.32 µg/mL (≈ 0.916 µM); in data set [12] (setting [22]), 1.3 µg/mL (≈ 3.72 µM). This molecule also had an IC50 in [13] of 2 µg/mL (≈ 5.72 µM). Moreover, the per cent surviving came out at 0 per cent with Escherichia Coli HA2 (single dose 75 μg s.c., given twice, 24 hours); 0 per cent with Escherichia Coli HA2 (single dose 150 μg s.c., given twice, 24 hours); 70 per cent in the data set on Escherichia Coli HA2 (single dose 300 μg s.c., given twice, 24 hours (survivors alive after 4 days)).
